Experimental data from EP0726944B1, “GL[…] NON-GLYCOSYLATED BACTERICIDAL/PE[…], AND METHODS FOR PRODUCING SAME” (INCYTE PHARMACEUTICALS, INC., priority 1993, dated 1995).
Values joined by “and” are separate entries in the source; they are usually repeats but may differ in a detail not shown here. Equal values may be shown once.

Columns and labels:
mice = experiment: Intranasal LPS challenge, TNFα in broncheoalveolar lavage fluid; assay type: in vivo; design: TNFα level in Broncheoalveolar Lavage Fluid, individual mouse: unit not given here; details: Polymyxin B 1.0µg (782 pmol) intranasal 20 minutes before LPS, BAL 1 hour after challenge
Description: Normal anesthetized mice were challenged by the intranasal route with 10 ng/ml E. coli 0111:B4 LPS (results in Table 10). Twenty minutes before challenge, anesthetized mice were treated by the intranasal route with 50µl saline, BPI Protein or polymyxin B solution. At one hour after LPS challenge, mice were re-anesthetized, and 0.7 ml of saline containing 1% human serum albumin was added to the lungs via the trachea. The lungs were gently kneaded. A 0.5 ml volume broncheoalveolar lavage (BAL) fluid was aspirated, cells were pelleted by centrifugation, and the BAL sample was stored at -70°C. The TNFα level in the BAL fluid was determined by measuring cytotoxicity towards WEHI clone 13 mouse fibrosarcoma cells and is summarized in Table 10. Human rTNFα (Chiron) was used as the standard.

human neutrophils = experiment: Neutrophil stimulation by LPS: CR1/CR3 upregulation, flow cytometry; assay type: cell-based; details: stoichiometric calculation
Description: Venous blood was drawn from healthy volunteer donors into acid citrate dextrose anticoagulant and immediately placed on ice. Five parts blood were mixed with 1 part cold Macrodex, and allowed to settle for 1.5 - 2 hours at 4°C. Leukocyte-rich plasma was washed 1X in cold HBSS, then resuspended in HBSS and layered over Ficoll-Paque. If significant erythrocyte contamination was present, the granulocyte pellet was subjected to hypotonic lysis. The cells were washed 2X in HBSS and resuspended in HBSS + 2% autologous plasma to give a final granulocyte concentration of 1 X 10^6/ml in the incubation mixture.
Isolated neutrophils were kept on ice until incubated with and without stimuli at 37°C for 30 minutes. Following the incubation, cells were washed in a large volume of cold PBS + 0.05% Na Azide + 2% autologous plasma. […] Following a 30 minute incubation at 0°C and 2 more washes, the cells were analyzed by flow cytometry on a Becton Dickinson FACStar flow cytometer (Becton Dickinson, Mountain View, CA). […]
Human neutrophils may be stimulated both in vivo and in vitro by lipopolysaccharide. […] Using the Fluorescence Activated Cell Sorter (FACS), fluorescence intensity of freshly isolated human neutrophils was measured following stimulation with increasing doses of 0111:B4 LPS (data not shown). […]

Human Monocytes [1] = experiment: LPS-induced TNF production by adherent peripheral blood mononuclear cells, ELISA; assay type: cell-based; details: Table 8; 1000 ng/ml Polymyxin B; 0.1 % w/v killed S. aureus
Human Monocytes [2] = experiment: as above; assay type: cell-based
Description: Human peripheral blood mononuclear cells were isolated on Ficoll-Paque (Pharmacia) gradients, washed 2X in pyrogen-free HBSS (Hazelton), and resuspended at 5 X 10^6/ml in RPMI (Gibco) media without serum. Two hundred µl of this cell suspension was incubated in each well of flat-bottom 96-well tissue culture dishes (Costar) for 2 hours at 37°C. Nonadherent cells were removed by washing 2X with RPMI + 10% autologous heat inactivated serum. Adherent mononuclear cells were stimulated with E. coli 0111:B4 LPS which had been preincubated for 30 minutes at 37°C with buffer, BPI Protein or polymyxin B (Gibco; 7900 U/ml). Supernatants were harvested four hours after LPS mixtures were added. Secretion of TNFα was quantitated by ELISA (Endogen) (results at Table 9).
BPI Protein produced in soluble form at low temperature in E. coli and purified as described above in purification process A was tested for inhibition of endotoxin-mediated TNF induction by human adherent mononuclear cells. Blood collected in acid citrate dextrose containing vacutainer tubes (Becton Dickinson, Rutherford, NJ) was diluted in Hank's balanced salt solution (HBSS) minus Ca^+2 and Mg^+2. Mononuclear cells were separated using Ficol-Paque (Pharmacia Inc., Piscataway, N.J.), collected and washed three times in HBSS, and the proportion of monocytes was estimated by microscopic examination. Cells were brought up to an appropriate volume of RPMI 1640 with glutamine and antibiotics and without serum to give approximately 1 x 10^6 monocytes/ml. Cells were plated into 96 11 flat bottom tissue culture plates (Costar, Cambridge, MA), 200 µl/well, and incubated for two hours at 37°C in a humidified incubator with […]. Cells were then washed three times in warm RPMI 1640 without serum. After the last wash was aspirated, 200 µl/well RPMI 1640 with 10% autologous heat-inactivated serum was added. To each well was then added the 22µl of 10X solution of E. coli endotoxin preincubated in buffer, polymyxin B, or BPI Protein. Cells were incubated with the endotoxin mixture for four hours at 37°C, then the supernatants were collected and assayed for TNFα antigen by ELISA (Endogen, Inc., Boston, MA) (Figure 12) .

[3] = assay type: binding; details: data not shown
Description: BPI Protein binds to LPS (data not shown). In these experiments, 4 µg of LPS/well was immobilized on 96 well plastic plates, then incubated with varying concentrations of BPI Protein, and developed with anti-BPI Protein polyclonal antisera. […]

Polymyxin B
TNFα level in Broncheoalveolar Lavage Fluid, Mean ± SD (mice): 253 ± 251 | TNFα level in Broncheoalveolar Lavage Fluid, individual mouse (mice; mice 1-5): 74 and 50 and 132 and 370 and 640 | calculated amount of PMB required to inhibit 10 ng/ml of smooth LPS (human neutrophils): approximately 0.67 nM | TNF Produced in Response to S. aureus Preincubated with substance (Human Monocytes [1]): 1685 ± 121 pg/mL | TNF Produced in Response to LPS Preincubated with substance (Human Monocytes [2]; Table 5, 100 ng/ml, LPS 0 ng/ml): 0 pg/mL | TNF Produced in Response to LPS Preincubated with substance (Human Monocytes [2]; Table 5, 100 ng/ml, LPS 0.1 ng/ml): 0 pg/mL | TNF Produced in Response to LPS Preincubated with substance (Human Monocytes [2]; Table 5, 100 ng/ml, LPS 1 ng/ml): 96 pg/mL | TNF Produced in Response to LPS Preincubated with substance (Human Monocytes [2]; Table 5, 100 ng/ml, LPS 10 ng/ml): 2154 pg/mL | TNF Produced in Response to LPS Preincubated with substance (Human Monocytes [2]; Table 5, 500 ng/ml, LPS 0 ng/ml): 0 pg/mL | TNF Produced in Response to LPS Preincubated with substance (Human Monocytes [2]; Table 5, 500 ng/ml, LPS 0.1 ng/ml): 0 pg/mL | TNF Produced in Response to LPS Preincubated with substance (Human Monocytes [2]; Table 5, 500 ng/ml, LPS 1 ng/ml): 0 pg/mL | TNF Produced in Response to LPS Preincubated with substance (Human Monocytes [2]; Table 5, 500 ng/ml, LPS 10 ng/ml): 1490 pg/mL | TNF Produced in Response to LPS Preincubated with substance (Human Monocytes [2]; Table 7, 100 ng/ml PMB, LPS 0 ng/ml): 0 pg/mL | TNF Produced in Response to LPS Preincubated with substance (Human Monocytes [2]; Table 7, 100 ng/ml PMB, LPS 0.1 ng/ml): 79 pg/mL | TNF Produced in Response to LPS Preincubated with substance (Human Monocytes [2]; Table 7, 100 ng/ml PMB, LPS 1 ng/ml): 1207 pg/mL | TNF Produced in Response to LPS Preincubated with substance (Human Monocytes [2]; Table 7, 100 ng/ml PMB, LPS 10 ng/ml): 1270 pg/mL | TNF Produced in Response to S. aureus Preincubated with substance (Human Monocytes [2]; Table 8, 100 ng/ml Polymyxin B, 0.1 % w/v killed S. aureus): 1541 ± 397 pg/mL | TNF Produced in Response to LPS Preincubated with substance (Human Monocytes [2]; Table 8, 100 ng/ml Polymyxin B, LPS 10 (unit not given)): 601 ± 257 pg/mL | TNF Produced in Response to LPS Preincubated with substance (Human Monocytes [2]; Table 8, 100 ng/ml Polymyxin B, LPS 100 (unit not given)): 1140 ± 73 pg/mL | TNF Produced in Response to LPS Preincubated with substance (Human Monocytes [2]; Table 8, 100 ng/ml Polymyxin B, LPS 1000 (unit not given)): 1016 ± 20 pg/mL | TNF Produced in Response to LPS Preincubated with substance (Human Monocytes [2]; Table 8, 1000 ng/ml Polymyxin B, LPS 10 (unit not given)): 333 ± 18 pg/mL | TNF Produced in Response to LPS Preincubated with substance (Human Monocytes [2]; Table 8, 1000 ng/ml Polymyxin B, LPS 100 (unit not given)): 769 ± 101 pg/mL | TNF Produced in Response to LPS Preincubated with substance (Human Monocytes [2]; Table 8, 1000 ng/ml Polymyxin B, LPS 1000 (unit not given)): 844 ± 144 pg/mL | inhibition of BPI Protein binding to LPS [3]: inhibited
